Assay type in all cases: in vivo
The test system of test [1] is Corn seeds. In words: Efficacy on corn seeds in Mississippi (emergence and yield).
The subject of test [2] is Rhizoctonia. The test is described as follows: Efficacy on corn seed in Ohio, soil inoculated with Rhizoctonia. The method, then:
Corn seeds were treated with 1 fluid ounce per one hundred weight (fl oz/cwt) of the Formulations of Examples 1 and 4 prior to being planted in Ohio. Untreated seeds were planted to assess the disease impact in stand establishment. Besides the control, commercially available and known fungicides were applied to determine the effectiveness of formulations of the present invention.
At planting, the soil was inoculated with a fungus of the genus Rhizoctonia, a common corn plant pathogen that causes rot disease, to assess field performance and seedling protection of the above formulas.
“Plants per acre” was determined to establish stand density. Stand Density of Ohio Corn Plants after Seed Treatment.”

Test [3] has as its system Fusarium. In words: Efficacy on corn seed in Illinois, soil inoculated with Fusarium. The note with it: for Plants per acre 14DAP / Plants per acre 28DAP: Fusarium-inoculated soil; for Plants per acre 14DAP: 14 days after planting; for Plants per acre 28DAP: 28 days after planting; for % disease: number of plants with Fusarium infection. The method, then:
Corn seeds were treated with 1 fluid ounce per one hundred weight (fl oz/cwt) or 65 mls/100 kg seed of the Formulations of Examples 1 and 4 prior to being planted in Illinois. Untreated seeds (“UTC”) were planted to assess the disease impact in stand establishment. Besides the control, commercially available and known fungicides were applied to determine the effectiveness of formulations of the present invention. Maxim® XL (Maxim is a registered trademark of Syngenta) is a fungicide containing 21% fludioxonil and 8.4% mefenoxam in a proprietary formulation. Apron XL® (Apron XL is a registered trademark of Syngenta) is fungicide containing 33.3% of mefenoxam in a proprietary formulation. Metalaxyl was applied in a 30.1% formulation and metconazole was applied in an approximately 40% dispersion with approximately 4% glycerine and other inert ingredients.
At planting, the soil was inoculated with a fungus of the genus Fusarium, a common corn plant pathogen that causes stalk rot disease, to assess field performance and seedling protection of the above formulas.
“Plants per acre” was determined to establish stand density. “% disease” was calculated by observing number of plants with Fusarium infection. The “height (cm) on roots” was determined. Stand Density and % Disease of Illinois Corn Plants after Seed Treatment.”

Molecules are shown by their SMILES.

As to `COCC(=O)N(c1c(C)cccc1C)C(C)C(=O)OC` (centres unmarked) [Metalaxyl, metalaxyl], in test [1], the “Yield (bu/A)” value stood at 154 bu/A, the “Yield (kg/hectare)” value worked out at 9662.3 kg/hectare, the “% Emergence 20DAP” value was 91.5% and the “% Emergence 35DAP” value is reported as 83.3%. Also, in test [2], the “Plants per acre 14DAP” value was found to be 22400 plants per acre and the “Plants per acre 28DAP” value was 28700 plants per acre. In test [3], the “Height (cm) on roots” value came out at 61.0 cm, the “Plants per acre 14DAP” value amounted to 25352 plants per acre, the “Plants per acre 28DAP” value stood at 26049 plants per acre and the “% disease” value stood at 18.0%.
Turning to `CC1(C)CCC(Cc2ccc(Cl)cc2)C1(O)Cn1cncn1` (centres unmarked) [Metconazole, metconazole], in test [1], the “Yield (bu/A)” value worked out at 155.5 bu/A, the “Yield (kg/hectare)” value is given as 9756.4 kg/hectare, the “% Emergence 20DAP” value is 80.8% and the “% Emergence 35DAP” value is recorded as 84.8%. Further, in test [2], the “Plants per acre 14DAP” value was 28875 plants per acre and the “Plants per acre 28DAP” value was determined as 28700 plants per acre. In test [3], the “Height (cm) on roots” value amounted to 57.3 cm, the “Plants per acre 14DAP” value was determined as 28401 plants per acre, the “Plants per acre 28DAP” value is reported as 29011 plants per acre and the “% disease” value is on record as 37.6%.

The values are drawn from patent US9693551B2, “Pesticidal dispersible concentrate formulations” (Valent U.S.A., Corporation, priority 2013, dated 2017).
